{"source": "patent US20230390323A1", "about": "“SPRAYABLE ANTIVIRAL FORMULATION” (priority 2020, published 2023)", "tested_on": "cells", "assay": "Cell compliance with the spray formulations", "type": "cell-based", "experimental": "A study was undertaken to determine cell compliance with the spray formulations over a 48 hour testing period. […] Dose-response was linear (R^2=0.96 and 0.97 for gellan and lambda-carrageenan, respectively), with reduced cell death as the systems became increasing more dilute.", "data": [{"substance": "gellan", "values": [{"measurement": "Reduction in the number of living cells", "result": 2, "unit": "fold"}]}]}
